Values joined by “and” are separate entries in the source; they are usually repeats but may differ in a detail not shown here. Identical values can stand only once. Like-named read-outs stand apart in the source and are kept apart here. Blank lines part the entries; values can stand above or below the molecule they belong to.
Columns and labels:
[1] = retina to scleral (R-S) direction, isolated rabbit RCS; ref [4]; cited from earlier work
in vivo = settings: male, New Zealand white, rabbit
[2] = vitreous humor, two-compartment model, n=4
[3] = ref [2],[4], cited from earlier work
[4] = ref Ameer et al., [10]; cited from earlier work

Vd (in vivo): 0.001 to 0.0015 L
AUC (in vivo; 1.5 ug): 2980 ng·h/mL
Cmax (in vivo; 1.5 ug): 1020 ± 200 ng/mL
clearance (in vivo; 1.5 ug, CL): 0.0093 ± 0.004 mL/min
half-life (in vivo; 1.5 ug, T1/2): 1.83 ± 0.467 h
AUC (in vivo; 4.5 ug): 7920 ng·h/mL
Cmax (in vivo; 4.5 ug): 4510 ± 570 ng/mL
clearance (in vivo; 4.5 ug, CL): 0.0096 ± 0.0015 mL/min
half-life (in vivo; 4.5 ug, T1/2): 1.48 ± 0.233 h
AUC (in vivo; 15 ug): 29100 ng·h/mL
Cmax (in vivo; 15 ug): 14700 ± 1990 ng/mL
clearance (in vivo; 15 ug, CL): 0.0086 ± 0.0007 mL/min
half-life (in vivo; 15 ug, T1/2): 1.38 ± 0.167 h
clearance (in vivo; 15 ug, clearance rate (CL)): 0.0086 to 0.0096 mL/min
half-life (in vivo; 15 ug, elimination half-life (T1/2)): 1.39 to 1.84 h
Molecule: COc1ccc([C@@H]2CC(=O)c3c(O)cc(O)cc3O2)cc1O [hesperetin, Hesperetin]
apparent permeability [1]: 2.52 ± 0.51 × 10^−6 cm/s

Molecule: COc1ccc([C@@H]2CC(=O)c3c(O)cc(O[C@@H]4O[C@H](CO[C@@H]5O[C@@H](C)[C@H](O)[C@@H](O)[C@H]5O)[C@@H](O)[C@H](O)[C@H]4O)cc3O2)cc1O [hesperidin, Hesperidin]
apparent permeability [1]: 1.51 ± 0.78 × 10^−6 cm/s
AUC ([2]; intravitreal dose 1.5 µg): 651 ± 88 µg·min/mL
Alpha ([2]; intravitreal dose 1.5 µg): 0.0267 ± 0.0077 min⁻¹
Alpha_HL ([2]; intravitreal dose 1.5 µg): 28 ± 7 min
Beta ([2]; intravitreal dose 1.5 µg): 0.0016 ± 0.0004 min⁻¹
Beta_HL ([2]; intravitreal dose 1.5 µg): 386 ± 116 min
CL ([2]; intravitreal dose 1.5 µg): 0.0027 ± 0.0003 mL/min
CLD2 ([2]; intravitreal dose 1.5 µg): 0.0058 ± 0.0010 mL/min
Cmax ([2]; intravitreal dose 1.5 µg): 3260 ± 1350 ng/mL
MRT ([2]; intravitreal dose 1.5 µg): 9.08 ± 1.77 h
V2 ([2]; intravitreal dose 1.5 µg): 0.75 ± 0.62 mL
Vss ([2]; intravitreal dose 1.5 µg): 1.48 ± 0.42 mL
AUC ([2]; intravitreal dose 4.5 µg): 1575 ± 164 µg·min/mL
Alpha ([2]; intravitreal dose 4.5 µg): 0.0249 ± 0.0109 min⁻¹
Alpha_HL ([2]; intravitreal dose 4.5 µg): 31 ± 11 min
Beta ([2]; intravitreal dose 4.5 µg): 0.0017 ± 0.0003 min⁻¹
Beta_HL ([2]; intravitreal dose 4.5 µg): 407 ± 58 min
CL ([2]; intravitreal dose 4.5 µg): 0.0029 ± 0.0003 mL/min
CLD2 ([2]; intravitreal dose 4.5 µg): 0.0054 ± 0.0026 mL/min
Cmax ([2]; intravitreal dose 4.5 µg): 10820 ± 1120 ng/mL
MRT ([2]; intravitreal dose 4.5 µg): 7.47 ± 0.917 h
V2 ([2]; intravitreal dose 4.5 µg): 0.87 ± 0.21 mL
Vss ([2]; intravitreal dose 4.5 µg): 1.29 ± 0.21 mL
AUC ([2]; intravitreal dose 15 µg): 4835 ± 861 µg·min/mL
Alpha ([2]; intravitreal dose 15 µg): 0.0358 ± 0.0084 min⁻¹
Alpha_HL ([2]; intravitreal dose 15 µg): 20 ± 5 min
Beta ([2]; intravitreal dose 15 µg): 0.0014 ± 0.0004 min⁻¹
Beta_HL ([2]; intravitreal dose 15 µg): 466 ± 98 min
CL ([2]; intravitreal dose 15 µg): 0.0032 ± 0.0005 mL/min
CLD2 ([2]; intravitreal dose 15 µg): 0.0130 ± 0.0026 mL/min
Cmax ([2]; intravitreal dose 15 µg): 25230 ± 3020 ng/mL
MRT ([2]; intravitreal dose 15 µg): 11.1 ± 3.07 h
V2 ([2]; intravitreal dose 15 µg): 1.46 ± 0.40 mL
Vss ([2]; intravitreal dose 15 µg): 2.07 ± 0.35 mL
log P [3]: 1.79 and 1.78
oral bioavailability [4]: < 25%

Molecule: glucosyl hesperidin [hesperidin G]
AUC ([2]; intravitreal dose 1.5 µg): 688 ± 47 µg·min/mL
Alpha ([2]; intravitreal dose 1.5 µg): 0.045 ± 0.019 min⁻¹
Alpha_HL ([2]; intravitreal dose 1.5 µg): 17 ± 6 min
Beta ([2]; intravitreal dose 1.5 µg): 0.0014 ± 0.0002 min⁻¹
Beta_HL ([2]; intravitreal dose 1.5 µg): 495 ± 66 min
CL ([2]; intravitreal dose 1.5 µg): 0.0022 ± 0.0002 mL/min
CLD2 ([2]; intravitreal dose 1.5 µg): 0.011 ± 0.002 mL/min
Cmax ([2]; intravitreal dose 1.5 µg): 3790 ± 1060 ng/mL
MRT ([2]; intravitreal dose 1.5 µg): 10.8 ± 1.5 h
Vss ([2]; intravitreal dose 1.5 µg): 1.41 ± 0.14 mL
AUC ([2]; intravitreal dose 4.5 µg): 1811 ± 269 µg·min/mL
Alpha ([2]; intravitreal dose 4.5 µg): 0.028 ± 0.011 min⁻¹
Alpha_HL ([2]; intravitreal dose 4.5 µg): 29 ± 16 min
Beta ([2]; intravitreal dose 4.5 µg): 0.0015 ± 0.0002 min⁻¹
Beta_HL ([2]; intravitreal dose 4.5 µg): 468 ± 82 min
CL ([2]; intravitreal dose 4.5 µg): 0.0025 ± 0.0004 mL/min
CLD2 ([2]; intravitreal dose 4.5 µg): 0.003 ± 0.001 mL/min
Cmax ([2]; intravitreal dose 4.5 µg): 20160 ± 6120 ng/mL
MRT ([2]; intravitreal dose 4.5 µg): 6.97 ± 0.35 h
Vss ([2]; intravitreal dose 4.5 µg): 1.05 ± 0.013 mL
AUC ([2]; intravitreal dose 15 µg): 6167 ± 168 µg·min/mL
Alpha ([2]; intravitreal dose 15 µg): 0.027 ± 0.007 min⁻¹
Alpha_HL ([2]; intravitreal dose 15 µg): 27 ± 8 min
Beta ([2]; intravitreal dose 15 µg): 0.0017 ± 0.0003 min⁻¹
Beta_HL ([2]; intravitreal dose 15 µg): 414 ± 70 min
CL ([2]; intravitreal dose 15 µg): 0.0024 ± 0.0002 mL/min
CLD2 ([2]; intravitreal dose 15 µg): 0.007 ± 0.001 mL/min
Cmax ([2]; intravitreal dose 15 µg): 32050 ± 4390 ng/mL
MRT ([2]; intravitreal dose 15 µg): 8.62 ± 1.33 h
Vss ([2]; intravitreal dose 15 µg): 1.25 ± 0.16 mL
log P [3]: −3.2
log P ([3]; listed as Hesperidin G): < −3.2

— PMC4157643 (Journal of pharmaceutical sciences, 2012)
